Assay results: ChEMBL document CHEMBL3397008, “Design, synthesis and evaluation of XZH-5 analogues as STAT3 inhibitors” (Bioorg Med Chem, 2015)

Tests used:
Format in all cases: functional, cell-based
[1] = Cytotoxicity against human PANC1 cells after 72 hrs by MTT assay; details: PANC-1, 72 h
HPAC = assay: Cytotoxicity against human HPAC cells after 72 hrs by MTT assay
MDA-MB-231 = assay: Cytotoxicity against human MDA-MB-231 cells after 72 hrs by MTT assay; details: MDA-MB-231, 72 h
SW1990 = assay: Cytotoxicity against human SW1990 cells after 72 hrs by MTT assay; details: SW1990, 72 h

Molecule COC(=O)[C@H](Cc1cn(C)cn1)NC(=O)[C@@H](NC(=O)Nc1cc(C(F)(F)F)cc(C(F)(F)F)c1)C(C)C has an IC50 [1] of 24.7 µM, an IC50 (HPAC) of 17.4 µM and an IC50 (MDA-MB-231) of 15.5 µM. It also gave an IC50 (SW1990) of 17.9 µM.

COC(=O)[C@H](Cc1cn(C)cn1)NC(=O)[C@H](C)NC(=O)Nc1cc(C(F)(F)F)cc(C(F)(F)F)c1 showed an IC50 [1] of 50 µM.

COC(=O)[C@H](Cc1cn(C)cn1)NC(=O)[C@H](CC(C)C)NC(=O)Nc1cc(C(F)(F)F)cc(C(F)(F)F)c1 gave an IC50 [1] of 16.8 µM, an IC50 (HPAC) of 13.2 µM and an IC50 (MDA-MB-231) of 10.6 µM. It also gave an IC50 (SW1990) of 9.1 µM.

Work on CC[C@H](C)[C@H](NC(=O)Nc1cc(C(F)(F)F)cc(C(F)(F)F)c1)C(=O)N[C@@H](Cc1cn(C)cn1)C(=O)OC yielded an IC50 [1] of 10.1 µM, an IC50 (HPAC) of 7.6 µM and an IC50 (MDA-MB-231) of 6.5 µM. It also gave an IC50 (SW1990) of 8.3 µM.

In the case of CC(C)[C@H](NC(=O)Nc1cc(C(F)(F)F)cc(C(F)(F)F)c1)C(=O)N[C@@H](Cc1cn(C)cn1)C(=O)O, the IC50 [1] is reported as > 100 µM.

With C[C@H](NC(=O)Nc1cc(C(F)(F)F)cc(C(F)(F)F)c1)C(=O)N[C@@H](Cc1cn(C)cn1)C(=O)O the IC50 [1] was > 100 µM.

Work on COC(=O)[C@H](Cc1cn(C)cn1)NC(=O)[C@H](Cc1ccccc1)NC(=O)Nc1cc(C(F)(F)F)cc(C(F)(F)F)c1 yielded an IC50 [1] of 16.1 µM, an IC50 (HPAC) of 9.6 µM and an IC50 (MDA-MB-231) of 6.8 µM. It also gave an IC50 (SW1990) of 10.8 µM.

Work on COC(=O)[C@H](Cc1cn(C)cn1)NC(=O)[C@H](Cc1c[nH]c2ccccc12)NC(=O)Nc1cc(C(F)(F)F)cc(C(F)(F)F)c1 yielded an IC50 [1] of 31.4 µM.

For COC(=O)[C@H](Cc1cn(C)cn1)NC(=O)[C@H](CC(=O)OCc1ccccc1)NC(=O)Nc1cc(C(F)(F)F)cc(C(F)(F)F)c1, the IC50 [1] was 68.6 µM.

Molecule COC(=O)[C@H](Cc1cn(C)cn1)NC(=O)[C@H](CCC(=O)OCc1ccccc1)NC(=O)Nc1cc(C(F)(F)F)cc(C(F)(F)F)c1 has an IC50 [1] of 85.5 µM.

For CCn1cnc(C[C@H](NC(=O)[C@@H](NC(=O)Nc2cc(C(F)(F)F)cc(C(F)(F)F)c2)C(C)C)C(=O)OC)c1, the IC50 [1] was 11.1 µM, the IC50 (HPAC) was 9.5 µM and the IC50 (MDA-MB-231) was 7.6 µM. The IC50 (SW1990) was 9.4 µM.

In the case of COC(=O)[C@H](Cc1cn(C)cn1)NC(=O)[C@@H](NC(=O)Nc1cc(C(F)(F)F)cc(C(F)(F)F)c1)C(C)(C)C, the IC50 [1] is reported as 8.8 µM, the IC50 (HPAC) is reported as 9.8 µM and the IC50 (MDA-MB-231) is reported as 9.4 µM. The IC50 (SW1990) was 8.5 µM.

With COC(=O)[C@H](Cc1c[nH]cn1)NC(=O)[C@@H](NC(=O)Nc1cc(C(F)(F)F)cc(C(F)(F)F)c1)C(C)C the IC50 [1] was 98.4 µM.

Work on COC(=O)[C@H](Cc1cn(C)cn1)NC(=O)[C@@H](NC(=O)Nc1cccc(C(F)(F)F)c1)C(C)C yielded an IC50 [1] of 61.9 µM.
